Key:
Assay in all cases: relative viability (nuclei count vs DMSO), 5 days (fraction); higher = more cells survive
BMX-IN-1 + Crizotinib = compound: C=CC(=O)Nc1cc(-n2c(=O)ccc3cnc4ccc(-c5ccc(NS(C)(=O)=O)cc5)cc4c32)ccc1C [BMX-IN-1] + C[C@@H](Oc1cc(-c2cnn(C3CCNCC3)c2)cnc1N)c1c(Cl)ccc(F)c1Cl [Crizotinib] (partner 1 µM)
Procedure, shortened: (§1)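 Each reported value is a median over duplicate plates. It expresses relative viability: treated-well nuclei count divided by vehicle-well nuclei count. Lung cancer cell lines in 1536-well plates were dosed by pin tool a day after seeding, alone with one drug or with a fixed anchor-drug dose plus five library-drug doses (not always all listed) in √10 steps, and nuclei were counted after 5 days.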

Ibrutinib + Alpelisib = compound: C=CC(=O)N1CCC[C@@H](n2nc(-c3ccc(Oc4ccccc4)cc3)c3c(N)ncnc32)C1 [Ibrutinib] + Cc1nc(NC(=O)N2CCC[C@H]2C(N)=O)sc1-c1ccnc(C(C)(C)C(F)(F)F)c1 [Alpelisib] (partner 2 µM)
Procedure, shortened: as §1

Ibrutinib + Bortezomib = compound: C=CC(=O)N1CCC[C@@H](n2nc(-c3ccc(Oc4ccccc4)cc3)c3c(N)ncnc32)C1 [Ibrutinib] + CC(C)C[C@H](NC(=O)[C@H](Cc1ccccc1)NC(=O)c1cnccn1)B(O)O [Bortezomib] (partner 0.002 µM)
Procedure, shortened: as §1

BMX-IN-1 + Alpelisib = compound: C=CC(=O)Nc1cc(-n2c(=O)ccc3cnc4ccc(-c5ccc(NS(C)(=O)=O)cc5)cc4c32)ccc1C [BMX-IN-1] + Cc1nc(NC(=O)N2CCC[C@H]2C(N)=O)sc1-c1ccnc(C(C)(C)C(F)(F)F)c1 [Alpelisib] (partner 2 µM)
Procedure, shortened: as §1

Cell Line | relative viability (BMX-IN-1 + Crizotinib; first compound 0.02 µM) | relative viability (BMX-IN-1 + Crizotinib; first compound 0.2 µM) | relative viability (BMX-IN-1 + Crizotinib; first compound 0.6325 µM) | relative viability (BMX-IN-1 + Crizotinib; first compound 2 µM) | relative viability (Ibrutinib + Alpelisib; first compound 0.005 µM) | relative viability (Ibrutinib + Alpelisib; first compound 0.01581 µM) | relative viability (Ibrutinib + Alpelisib; first compound 0.05 µM) | relative viability (Ibrutinib + Alpelisib; first compound 0.1581 µM) | relative viability (Ibrutinib + Alpelisib; first compound 0.5 µM) | relative viability (Ibrutinib + Bortezomib; first compound 0.005 µM) | relative viability (Ibrutinib + Bortezomib; first compound 0.01581 µM) | relative viability (Ibrutinib + Bortezomib; first compound 0.05 µM) | relative viability (Ibrutinib + Bortezomib; first compound 0.1581 µM) | relative viability (Ibrutinib + Bortezomib; first compound 0.5 µM) | relative viability (BMX-IN-1 + Alpelisib; first compound 0.02 µM) | relative viability (BMX-IN-1 + Alpelisib; first compound 0.2 µM) | relative viability (BMX-IN-1 + Alpelisib; first compound 0.6325 µM) | relative viability (BMX-IN-1 + Alpelisib; first compound 2 µM)
NCI-H460 | 1.57 | 1.76 | 0.906 | 1.03 | 0.5 | 0.319 | 0.496 | 0.536 | 0.538 | 1.27 | 1.02 | 1.19 | 1.19 | 1.27 | 0.827 | 0.752 | 0.566 | 0.568
NCI-H520 | 1.37 | 1.08 | 0.79 | 0.795 | 0.892 | 0.797 | 1.04 | 1.09 | 0.759 | 0.567 | 0.45 | 0.553 | 0.662 | 0.338 | 1.26 | 0.922 | 0.873 | 0.753
NCI-H596 | 1.13 | 1.18 | 1.03 | 0.827 | 0.482 | 0.503 | 0.51 | 0.503 | 0.479 | 1.21 | 0.457 |  | 0.834 | 0.92 | 0.511 | 0.535 | 0.544 | 0.54
NCI-H647 | 1.41 | 1.45 | 1.1 | 0.937 | 1.15 | 1.01 | 1.14 | 1.45 | 1.21 | 0.823 | 0.86 | 0.991 | 1.04 | 1.02 | 1.25 | 1.32 | 1.36 | 0.974
NCI-H650 | 0.881 | 0.863 | 0.707 | 0.774 |  | 1 |  | 1.26 | 1.13 |  | 0.706 |  | 1.12 | 0.932 | 1.2 | 1.19 | 1.27 | 1.1
NCI-H661 |  | 0.96 | 1.14 | 0.976 | 0.467 | 0.68 | 0.358 | 0.524 | 0.216 | 0.833 | 0.748 | 0.652 | 0.838 | 0.611 | 0.675 | 0.889 | 0.758 | 0.692
NCI-H727 | 1.15 | 1.12 | 1.01 | 0.846 | 0.519 | 0.556 | 0.433 | 0.576 | 0.435 | 0.628 | 0.796 | 0.981 | 0.623 | 0.785 | 0.499 | 0.671 | 0.766 | 0.578
NCI-H838 | 1.14 | 0.983 | 0.834 | 0.877 | 0.836 | 1 | 1.14 | 1.01 | 0.987 | 0.781 | 0.729 | 0.687 | 0.741 | 0.673 | 1.18 | 0.961 | 1.06 | 1.04
NCI-H1299 | 0.798 | 1.03 | 0.97 | 1.01 | 1.08 | 1.01 | 1.03 | 1.06 | 1.06 | 1.02 | 1 | 0.995 | 1.02 | 1.04 | 1.14 | 1.17 | 1.1 | 1.16
NCI-H1355 | 1.27 | 1.17 | 1.08 | 1.13 |  | 0.704 | 0.782 | 0.887 | 0.646 |  | 1.14 | 1.18 | 1.2 | 1.16 | 0.906 | 0.943 | 0.865 | 0.786
NCI-H1437 | 1.3 | 1.01 | 1.1 | 1.07 | 0.958 | 0.937 | 1.01 | 0.988 | 1.03 | 0.647 | 0.476 | 0.449 | 0.482 | 0.603 | 1.26 | 0.953 | 1.1 | 1.05
NCI-H1563 | 0.794 | 0.887 | 0.86 | 0.761 | 1 | 0.883 | 0.882 | 1.09 | 0.946 | 0.778 | 0.771 | 0.807 | 0.742 | 0.752 | 0.997 | 0.902 | 0.904 | 0.893
NCI-H1651 | 0.976 | 1.01 | 0.907 | 0.862 | 0.903 | 0.938 | 0.995 | 0.935 | 1.1 | 0.953 | 0.971 |  | 0.822 | 0.967 | 1.07 | 1.06 | 0.943 | 0.863
NCI-H1666 | 1.08 | 0.98 | 1.05 | 0.906 | 0.677 | 0.726 |  | 1.11 | 0.426 | 0.768 | 0.79 | 0.802 | 0.695 | 0.977 | 1.03 | 1.02 | 1.13 | 1.08
NCI-H1703 | 0.821 | 0.952 | 0.631 | 0.56 | 0.273 | 0.362 | 0.362 | 0.397 | 0.243 | 0.374 | 0.308 | 0.332 | 0.409 | 0.231 | 0.359 | 0.254 | 0.269 | 0.252
NCI-H1734 | 0.797 | 0.807 | 0.794 | 0.703 | 0.557 | 0.583 | 0.705 | 0.669 | 0.654 | 0.799 | 0.923 | 1.02 | 0.989 | 0.929 | 0.668 | 0.717 | 0.783 | 0.652
NCI-H1755 | 1.01 | 1.07 | 0.958 | 0.843 | 0.939 | 0.893 | 1.03 | 0.981 | 0.932 | 0.914 | 0.983 | 1.02 | 0.95 | 0.969 | 1.01 | 1.23 | 1.06 | 0.965
NCI-H1792 | 0.886 | 1.7 | 0.855 | 0.977 | 0.716 | 0.698 | 0.764 | 0.782 | 0.65 |  | 0.984 | 1 | 0.85 | 0.93 | 0.585 | 0.473 | 0.579 | 0.684
